Data taken from patent US12291494B2, “Methods of treating fibrosis” (Nogra Pharma Limited, priority 2012, dated 2025).

Key:
[1] = tested on: Collagen I; assay: DSS intestinal fibrosis study: Western blot of colon, Collagen I; type: in vivo, mice; details: whole colon, OD normalized with GAPDH, expressed as percentage of control groups; DSS 284.4 ± 63.86; listed as GED
Experimental: (§1) For the Western blot analysis, 0.5 cm of frozen colonic samples were homogenized in RIPA Buffer containing 50 mM Tris HCl pH 7.6, 150 mM NaCl, 1.5 mM MgCl2, 5 mM EDTA, 1% Triton-X and 10% Glycerol, supplemented with 100 mM Sodium Fluoride (NaF), 2 mM Sodium Orthovanadate (Na3VO4), 10 mM Sodium Pyrophosphate (NaPPi), 1 mM phenylmethanesulphone (PMSF) and a classical protease-inhibitor cocktail containing 10 μg/mL Leupeptin and Aprotinin.
(§2) For each sample, 30 μg of protein was separated by PAGE and electroblotted. Nitrocellulose membranes (100% pure) were incubated (according with a specific protocol for each antibody) with primary antibodies directed against CTGF, Collagen-I and GAPDH (purchased from Abcam, Cambridge, UK; 1:1000 for 2 h at RT), diluted in 5% non-fat milk in 0.1% TBS-t. […] Optical density of target bands was determined using a computer-assisted densitometer and the ImageJ public domain software (W. S., Rasband, ImageJ, U. S. National Institutes of Health, Bethesda, MD; http://rsb.info.nih.gov/ij/, 1997-2011). Tissue levels were expressed as units of Optical Density (OD) per quantity of total proteins, normalized with internal control GAPDH and the results were expressed as percentage of control groups.

[2] = tested on: IL-13; assay: DSS intestinal fibrosis study: Western blot of colon, IL-13; type: in vivo, mice; details: whole colon, OD normalized with GAPDH, expressed as percentage of control groups; DSS 189.5 ± 28.71; listed as GED
Experimental: as §1, §2

[3] = tested on: C57bl6 mice; assay: DSS intestinal fibrosis study: inflammation level by histology (May-Grunwald-Giemsa); type: in vivo; details: colon, MGG staining; DSS vehicle 3.77±0.80, control 0.50±0.33
Experimental: Rings of the transverse part of the colon were sampled (post mortem) and fixed in 4% formaldehyde and embedded in paraffin for histological analysis. Sections (4 μm) were stained with May-Grunwald-Giemsa and a multiparametric histological scoring (0 to 18) was performed blindly by two investigators. This staining allowed the quantification of inflammation. Histological grades, reflecting the inflammation level, were assigned based on the intensity of cellular infiltrate in the mucosa, its extension in sub-mucosa layers and the presence of epithelial lesions (see Table 5).

[4] = tested on: C57bl6 mice; assay: DSS intestinal fibrosis study: level of fibrosis by Picrosirius red staining; type: in vivo; details: colon; DSS vehicle 2.27±0.12, control 1.12±0.07
Experimental: Samples of colon obtained were promptly fixed with 10% buffered formalin in PBS (pH 7.4) for 3 h, dehydrated in graded ethanol and embedded in low-temperature-fusion paraffin. Formalin-fixed colonic tissue was processed and 5 μm thick paraffin sections were stained with Picrosirius red staining for histological analysis. Pictures were obtained with a ×20 objective. Each section was analyzed blindly by 3 different experimenters for the quantification of the degree of fibrosis using a score from 0 to 4.

[5] = tested on: C57BL/6 mice; assay: DSS chronic colitis (Ex. 7): macroscopic colonic findings; type: in vivo
Experimental: Finally, seven days after the last DSS cycle administration, the animals of each group were sacrificed by cervical dislocation under deep CO2 anaesthesia and undergone to laparotomy. The colon were visualized and rapidly excised. The length of the whole colon-rectum and the weight of the distal 8 cm of colon-rectum were measured.
The macroscopic colonic lesions including dilation, thickness and stenosis were scored by an independent observer, unaware of the mice treatment. Tissue specimens from the colon were dissected and immediately frozen or fixed in fresh 4% formaldehyde (FA)/PBS solution for 3 h at room temperature followed by the standard procedure for paraffin embedding. Paraffin embedded tissues transversally sectioned at 3 μm were subject to Hematoxylin/Eosin staining, to assess the inflammatory degree, and Masson trichrome to better assess connective tissue and fibrosis. The stained sections were then blindly observed under an Olympus BX51 Light Microscope (Olympus, Optical Co. Ltd., Tokyo, Japan) by two pathologists which have performed the histological score evaluating: i. presence of ulcers (0=absent, 1=little ulcers, 2=big ulcers); ii. the inflammatory degree (0=absent 1=mild, 2=moderate and 3=severe); iii. depth of lesions (0=absent, 1=lesions extending in the submucosa, 2=lesions in the muscolarispropria and 3=lesions in the serosa); iv. degree of fibrosis (0=absent 1=mild, 2=moderate and 3=severe). The degree of intestinal inflammation was assessed according to the density and extent of chronic inflammatory infiltrate, loss of goblet cells, and bowel wall thickening. A total microscopic score will be obtained as sum of all scores (maximum score possible=[…]).
At no stage frank rectal bleeding or rectal prolapse were observed. The mice were sacrificed on day 15 and day 30, respectively, and the colon was subjected to macroscopic evaluation by measuring of colon weight (referred to the last 8 cm of the distal large bowel) and colon length and by observing the presence of adhesions, strictures, dilatation, thickness that was scored as 0 if absent; 1 if mild or moderate; and 2 if severe. The total macroscopic score was calculated as sum of all these score.

[6] = tested on: C57bl6 mice; assay: DSS intestinal fibrosis study (Ex. 5/6): colon ratio weight/size; type: in vivo
Experimental: This example describes an experiment to evaluate the effect of compound 34 on intestinal fibrosis. Chronic colitis was induced in C57bl6 mice by 3 cycles of 2.5% DSS (40,000-50,000 MW, TdB consultancy AB, Sweden) dissolved in sterile drinking water for 5 days followed by 7 days of regular drinking water.
Compound 34 was used at its optimal dosage (30 mM) and administered by oral gavage daily after the second cycle of DSS and until euthanasia. Mice receiving DSS were checked twice a week for development of colitis by monitoring body weight. Euthanasia of mice was performed one week after the third cycle of DSS (see FIG. 5). Evaluation of the size and weight of the colon was evaluated post mortem.
Intestinal fibrosis is characterized by a shortening and thickening of the colon and adherences. The measure of the ratio weight/size of the colon is an indicator of the level of inflammation and fibrosis. […] Compound 34 causes a 34% reduction in the profibrotic effect of DSS leading to a significant decrease ratio weight/size of the colon of 38.13±7.82 vs 44.98±6.31 (p<0.05) compared to DSS mice receiving the vehicle (FIG. 6A). Accordingly, it reduces the morphological signs of fibrosis such as the shortening and the thickening of the colon and it decreases the collagen deposit in the colon (FIG. 6B).

[7] = chronic DSS colitis, GED 30 mg/kg oral daily, mean ± SEM

## COC(Cc1ccc(N)cc1)C(=O)O (racemic) [Compound 34, (±)-2-methoxy-3-(4′-aminophenyl) propionic acid]
[1]
  Collagen I (Western blot): 90.75±19.91
[2]
  IL-13 (Western blot): 88.88±14.01
[3]
  inflammation level, histological score (0 to 18): 2.18±0.48
[4]
  level of fibrosis, score from 0 to 4 (Picrosirius red): 1.625±0.15
[5]; Ex. 7, GED 30 mg/kg oral daily
  reduction respect to the profibrotic effect of DSS (colon ratio weight/size): 26%
[5]; Ex. 7, GED 30 mg/kg oral daily, DSS 44.98±6.31, control 20.11±3.91
  ratio weight/size of the colon: 38.13±7.82
[5]; [7]
  Adhesions (score 0-2): 0.12 ± 0.1^¥¥
  Colon length: 7.092 ± 0.16**/ ^
  Colon weight/body weight ratio: 0.27 ± 0.012**/^¥¥
  Dilation (score 0-2): 1.12 ± 0.185**/^¥¥
  Stenosis (score 0-2): 0.32 ± 0.114**/^¥
  Thickness (score 0-2): 0.48 ± 0.108**/^¥
[5]; chronic DSS colitis, GED 30 mg/kg oral daily, mean ± SEM, DSS 3.112 ± 0.31
  Total macroscopic score: 2.02 ± 0.26**/^¥¥
[5]; distal 8 cm of colon-rectum, chronic DSS colitis, GED 30 mg/kg oral daily, mean ± SEM
  Colon weight: 0.269 ± 0.007 ^
[6]; compound 34 30 mM 200 uL oral gavage daily day 13-36, DSS vehicle 44.98±6.31, control 20.11±3.91
  ratio weight/size of the colon: 38.13±7.82
[6]; compound 34 30 mM oral gavage
  reduction in the profibrotic effect of DSS (colon ratio weight/size): 34%
